pIC50, pKd: −log10 of the molar value. Counter-ions that a name gives are not always drawn. Like-named read-outs stand apart in the source and are kept apart here. Starred links: 1 amine or outer side, 2 acyl side, 3 side chain; linkers in the order of their positions; H or OH if unused. Positions of bridges follow the written chain, without caps; N, C: chain ends. Non-standard residues stand in square brackets, D forms with d. Residues, ends and D or L forms follow the SMILES beside them. Groups on a side chain read outwards from the residue. *: point of attachment. DOTA = O=C(O)CN1CCN(CC(=O)O)CCN(CC(=O)*)CCN(CC(=O)O)CC1; Trp(5-OH) = N[C@@H](Cc1c[nH]c2ccc(O)cc12)C(=O)O; Piperazinyl(4-CH2COOH) = O=C(O)CN1CCN(*)CC1; NMePhe(4-F) = CN[C@@H](Cc1ccc(F)cc1)C(=O)O; NMehPhe = CN[C@@H](CCc1ccccc1)C(=O)O; Aad = N[C@@H](CCCC(=O)O)C(=O)O; Gly(cPr) = N[C@H](C(=O)O)C1CC1; NMehCys = CN[C@@H](CCS)C(=O)O; NMeK = CN[C@@H](CCCCN)C(=O)O; NMeDap = CN[C@@H](CN)C(=O)O; NMeS = CN[C@@H](CO)C(=O)O; CO = O=C([*:1])[*:2]
Experiments:
human HER2 (23-652) [1] = target: T1, human HER2 (23-652) (Homo sapiens, UniProt P04626); assay: Surface plasmon resonance (SPR) for assessment of peptide affinity, human HER2; format: binding; parameters: towards human HER2 (23-652) and mouse HER2 (23-653); made in house
Method in brief: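 Binding kinetics fitted from sensorgrams with 280 s peptide association then 3000 s dissociation (30 uL/min), using HER2 (23-652) either directly immobilized (SA/CM5) or anti-Fc-captured; 3 M magnesium chloride used for regeneration.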

mouse HER2 (23-653) [2] = target: T2, mouse HER2 (23-653) (Mus musculus, UniProt P70424); assay: TR-FRET competition assay for peptide potency, mouse HER2; format: binding; parameters: mouse HER2 (23-653) using a Cy5 labeled peptide as a probe; made in house; host or cells: mammalian cells
mouse HER2 (23-653) [3] = target: T2, mouse HER2 (23-653); assay: Surface plasmon resonance (SPR) for assessment of peptide affinity, mouse HER2; format: binding; parameters: mouse HER2 (23-653) using a Cy5 labeled peptide as a probe; made in house
Source text: Each protein was immobilized either onto a SA sensorchip (Cytiva, BR-1005-31) or CM5 sensorchip (Cytiva, BR-1005-30) to a density of 800-2000 RU.

human HER2 (23-652) [4] = target: T1, human HER2 (23-652); assay: TR-FRET competition assay for peptide potency, human HER2; format: binding; parameters: towards human HER2 (23-652) and mouse HER2 (23-653); made in house; host or cells: mammalian cells
[5] = SPR, human HER2 extracellular domain, 25° C., 1:1 binding model, read-out: huHER2-SPR-ONC KD
[6] = TR-FRET competition with Cy5 labeled peptide probe, 0.1 nM mouse HER2, 24 h incubation, read-out: moHER2 TR-FRET IC50
[7] = SPR, mouse HER2 extracellular domain, 25° C., 1:1 binding model, read-out: moHER2-SPR-ONC KD

Compound: 2-((1E,3E)-5-((E)-1-(6-(((S)-5-((S)-2-((3S,6S,9S,12S,15S,18S,21S,24S,27S)-9-((1H-indol-3-yl)methyl)-27-acetamido-15-(4-acetamidobutyl)-12-((5-hydroxy-1H-indol-3-yl)methyl)-24-(4-hydroxybenzyl)-6-((S)-1-hydroxyethyl)-21-(hydroxymethyl)-N,4,16,19-tetramethyl-5,8,11,14,17,20,23,26,30-nonaoxo-18-phenethyl-1,4,7,10,13,16,19,22,25-nonaazacyclotriacontane-3-carboxamido)-3-(4-fluorophenyl)propanamido)-6-amino-6-oxohexyl)amino)-6-oxohexyl)-3,3-dimethyl-5-sulfoindolin-2-ylidene)penta-1,3-dien-1-yl)-1-ethyl-3,3-dimethyl-3H-indol-1-ium-5-sulfonate
- ring closure, yield after HPLC (amide bond, 30-membered ring, PyAOP/DIEA, DMF, resin, […], 50.0 °C, with chain assembly): 1.7%

Compound: (4R,7S,10S,13S,16S,19S,22S,25S,28R)-10-((1H-indol-3-yl)methyl)-28-amino-N—((S)-1-amino-3-(4-fluorophenyl)-1-oxopropan-2-yl)-7-cyclopropyl-13-((5-hydroxy-1H-indol-3-yl)methyl)-25-(4-hydroxybenzyl)-16,22-bis(hydroxymethyl)-N,5,17,20-tetramethyl-6,9,12,15,18,21,24,27-octaoxo-19-phenethyl-1,2-dithia-5,8,11,14,17,20,23,26-octaazacyclononacosane-4-carboxamide TFA salt
- ring closure, yield after HPLC (disulfide bond, 29-membered ring, DMSO (air), DMSO/water 1/4, 1.88 mM, […]): 26%

Compound: 2-(4-(((S)-5-((S)-2-((3S,6S,9S,12S,15S,18S,21S,24S,27S)-9-((1H-indol-3-yl)methyl)-15-(4-acetamidobutyl)-27-(3-aminopropanamido)-12-((5-hydroxy-1H-indol-3-yl)methyl)-24-(4-hydroxybenzyl)-6-((S)-1-hydroxyethyl)-21-(hydroxymethyl)-N,4,16,19-tetramethyl-5,8,11,14,17,20,23,26,30-nonaoxo-18-phenethyl-1,4,7,10,13,16,19,22,25-nonaazacyclotriacontane-3-carboxamido)-3-(4-fluorophenyl)propanamido)-6-amino-6-oxohexyl)carbamoyl)piperazin-1-yl) acetic acid TFA salt
- ring closure, yield after HPLC (amide bond, 30-membered ring, DIC/Oxyma, DMF, resin, […], 75.0 °C, with chain assembly): 4.7%

Compound: (3R,6S,9S,12S,15S,18S,21S,24S,27S)-9-((1H-indol-3-yl)methyl)-27-acetamido-N—((S)-1-amino-3-(4-fluorophenyl)-1-oxopropan-2-yl)-6-cyclopropyl-12-((5-hydroxy-1H-indol-3-yl)methyl)-24-(4-hydroxybenzyl)-15,21-bis(hydroxymethyl)-N,4,16,19-tetramethyl-5,8,11,14,17,20,23,26,30-nonaoxo-18-phenethyl-1-thia-4,7,10,13,16,19,22,25,29-nonaazacyclohentriacontane-3-carboxamide
- ring closure, yield after HPLC (thioether bond, 31-membered ring, DIEA, ACN/water, […], with chain assembly): 6%

Compound: Ac-hGlu-Tyr-Ser-MehPhe-MeLys(COCH2OH)-Trp(5-OH)-Trp-Gly(cPr)-MeDap-MePhe(4-F)-Lys(Alloc)-NH2?
- ring closure, yield after HPLC (the molecule shown is the open-chain precursor, amide bond, 31-membered ring, PyAOP/DIEA, then Pd(PPh3)4/PhSiH3, DMF, 5.0 mM, with chain assembly): 10.3%

Compound: CN1C(=O)[C@H](CO)NC(=O)[C@H](Cc2ccc(O)cc2)NC(=O)[C@@H](N)Cc2cccc(c2)CC(=O)NC[C@@H](C(=O)N(C)[C@@H](Cc2ccc(F)cc2)C(N)=O)N(C)C(=O)[C@H](C2CC2)NC(=O)[C@H](Cc2c[nH]c3ccccc23)NC(=O)[C@H](Cc2c[nH]c3ccc(O)cc23)NC(=O)[C@H](CO)N(C)C(=O)[C@@H]1CCc1ccccc1 [Example A31, (6S,9S,12S,15S,18S,21S,24S,27S,30S)-12-((1H-indol-3-yl)methyl)-30-amino-N—((S)-1-amino-3-(4-fluorophenyl)-1-oxopropan-2-yl)-9-cyclopropyl-15-((5-hydroxy-1H-indol-3-yl)methyl)-27-(4-hydroxybenzyl)-18,24-bis(hydroxymethyl)-N,7,19,22-tetramethyl-3,8,11,14,17,20,23,26,29-nonaoxo-21-phenethyl-4,7,10,13,16,19,22,25,28-nonaaza-1 (1,3)-benzenacyclohentriacontaphane-6-carboxamide TFA salt]
- pKd (human HER2 (23-652) [1]; [5]): 6.31
- pIC50 (mouse HER2 (23-653) [2]; [6]): < 6.00
- pKd (mouse HER2 (23-653) [3]; [7]): 6.12
- pIC50 (human HER2 (23-652) [4]; read-out: huHER2 TR-FRET IC50): 6.07

Compound: CN1C(=O)[C@H](CO)NC(=O)[C@H](Cc2ccc(O)cc2)NC(=O)[C@@H](N)CC(=O)NC[C@@H](C(=O)N(C)[C@@H](Cc2ccc(F)cc2)C(N)=O)N(C)C(=O)[C@H](C2CC2)NC(=O)[C@H](Cc2c[nH]c3ccccc23)NC(=O)[C@H](Cc2c[nH]c3ccc(O)cc23)NC(=O)[C@H](CO)N(C)C(=O)[C@@H]1CCc1ccccc1 [Example A37, (3S,6S,9S,12S,15S,18S,21S,24S,27S)-9-((1H-indol-3-yl)methyl)-27-amino-N-((S)-1-amino-3-(4-fluorophenyl)-1-oxopropan-2-yl)-6-cyclopropyl-12-((5-hydroxy-1H-indol-3-yl)methyl)-24-(4-hydroxybenzyl)-15,21-bis(hydroxymethyl)-N,4,16,19-tetramethyl-5,8,11,14,17,20,23,26,29-nonaoxo-18-phenethyl-1,4,7,10,13,16,19,22,25-nonaazacyclononacosane-3-carboxamide TFA salt] (H-DYS[NMehPhe][NMeS][Trp(5-OH)]W[Gly(cPr)][NMeDap][NMePhe(4-F)]-NH2; lactam 1-9)
- pKd (human HER2 (23-652) [1]): 6.34
- pIC50 (mouse HER2 (23-653) [2]; moHER2 TR-FRET IC50, TR-FRET competition with Cy5 labeled peptide probe, 0.1 nM mouse HER2, 24 h incubation): < 6.00
- pKd (mouse HER2 (23-653) [3]): 6.67
- pIC50 (human HER2 (23-652) [4]; huHER2 TR-FRET IC50, TR-FRET competition with Cy5 labeled peptide probe, 0.1 nM human HER2, 24 h incubation): 6.09

Compound: CC(=O)NCCCC[C@H]1C(=O)N[C@@H](Cc2c[nH]c3ccc(O)cc23)C(=O)N[C@@H](Cc2c[nH]c3ccccc23)C(=O)N[C@@H](C2CC2)C(=O)N(C)[C@H](C(=O)N(C)[C@@H](Cc2ccc(F)cc2)C(=O)N[C@@H](CCCCNC(=O)CN2CCN(CC(=O)O)CCN(CC(=O)O)CCN(CC(=O)O)CC2)C(N)=O)CNC(=O)CCC[C@H](NC(C)=O)C(=O)N[C@@H](Cc2ccc(O)cc2)C(=O)N[C@@H](CCCCNC(=O)N2CCN(CC(=O)O)CC2)C(=O)N(C)[C@@H](CCc2ccccc2)C(=O)N1C [Example C7] (Ac-[Aad]YK([CO-Piperazinyl(4-CH2COOH)])[NMehPhe][NMeK](Ac)[Trp(5-OH)]W[Gly(cPr)][NMeDap][NMePhe(4-F)]K(DOTA)-NH2; lactam 1-9)
- pKd (human HER2 (23-652) [1]; [5]): 5.94
- pIC50 (mouse HER2 (23-653) [2]; [6]): 6.37
- pIC50 (mouse HER2 (23-653) [2]; value in parentheses (**): recalculated after further repetition, read-out: moHER2 TR-FRET IC50, recalculated value achieved after further repetition): 6.36
- pKd (mouse HER2 (23-653) [3]; [7]): 6.10
- pIC50 (human HER2 (23-652) [4]; TR-FRET competition with Cy5 labeled peptide probe, 0.1 nM human HER2, 24 h incubation, read-out: huHER2 TR-FRET IC50): 6.63
- pIC50 (human HER2 (23-652) [4]; value in parentheses (**): recalculated after further repetition, read-out: huHER2 TR-FRET IC50, recalculated value achieved after further repetition): 6.79

Compound: CC(=O)NCCCC[C@H]1C(=O)N[C@@H](Cc2c[nH]c3ccc(O)cc23)C(=O)N[C@@H](Cc2c[nH]c3ccccc23)C(=O)N[C@@H](C2CC2)C(=O)N(C)[C@H](C(=O)N(C)[C@@H](Cc2ccc(F)cc2)C(N)=O)CCSSC[C@H](N)C(=O)N[C@@H](Cc2ccc(O)cc2)C(=O)N[C@@H](CO)C(=O)N(C)[C@@H](CCc2ccccc2)C(=O)N1C [Example A56, (5S,8S,11S,14S,17S,20S,23S,26S,29R)-11-((1H-indol-3-yl)methyl)-17-(4-acetamidobutyl)-29-amino-N-((S)-1-amino-3-(4-fluorophenyl)-1-oxopropan-2-yl)-8-cyclopropyl-14-((5-hydroxy-1/-indol-3-y1)methyl)-26-(4-hydroxybenzyl)-23-(hydroxymethyl)-N,6,18,21-tetramethyl-7,10,13,16,19,22,25,28-octaoxo-20-phenethyl-1,2-dithia-6,9,12,15,18,21,24,27-octaazacyclotriacontane-5-carboxamide TFA salt] (H-CYS[NMehPhe][NMeK](Ac)[Trp(5-OH)]W[Gly(cPr)][NMehCys][NMePhe(4-F)]-NH2; disulfide 1-9)
- pKd (human HER2 (23-652) [1]; [5]): 6.35
- pIC50 (mouse HER2 (23-653) [2]; [6]): 6.12
- pKd (mouse HER2 (23-653) [3]; [7]): 6.38
- pIC50 (human HER2 (23-652) [4]; read-out: huHER2 TR-FRET IC50): 6.64

— patent US20250332300A1 (priority 2024, published 2025)
